Measured values published in patent US6455582B1, “Sulohydroxamic acids and sulohyroxamates and their use as MEK inhibitors” (Warner-Lambert Company, priority 1999, dated 2002).

Biological target: GST-MEK / GST-MAPK (p45MEK, p44MAP kinase) cascade
Assay: Cascade assay for inhibitors of the MAP kinase pathway (APK)
Format: biochemical
Experimental: Cascade assay for inhibitors of the MAP kinase pathway
Incorporation of ^32P into myelin basic protein (MBP) is assayed in the presence of a glutathione S-transferase fusion protein containing p44MAP kinase (GST-MAPK) and a glutathione S-transferase fusion protein containing p45MEK (GST-MEK). The assay solution contains 20 mM HEPES, pH 7.4, 10 mM MgCl2, 1 mM MnCl2, 1 mM EGTA, 50,μM [γ-^32P]ATP, 10 μg GST-MEK, 0.5 μg GST-MAPK and 40 μg MBP in a final volume of 100 μL. Reactions are stopped after 20 minutes by addition of trichloroacetic acid and filtered through a GF/C filter mat. ^32P retained on the filter mat is determined using a 120S Betaplate. Compounds are assessed at 10 μM for ability to inhibit incorporation of ^32P
To ascertain whether compounds are inhibiting GST-MEK or GST MAPK, two additional protocols are employed. In the first protocol, compounds are added to tubes containing GST-MEK, followed by addition of GST-MAPK, MBP and [γ-^32P]ATP. In the second protocol, compounds are added to tubes containing both GST-MEK and GST-MAPK, followed by MBP and [γ-^32P]ATP.
Compounds that show activity in both protocols are scored as MAPK inhibitors, while compounds showing activity in only the first protocol are scored as MEK inhibitors.

SMILES: O=S(=O)(NOCC1CC1)c1ccc(F)c(F)c1Nc1ccc(I)cc1Cl [PD 0297447, 2-(2-Chloro-4-iodo-phenylamino)-N-cyclopropylmethoxy-3,4-difluoro-benzenesulfonamide]
- IC50: 965 nM
